Measurements from US20260176289A1, “SMALL MOLECULE INHIBITORS OF KRAS PROTEINS” (Merck Sharp & Dohme LLC, priority 2022, published 2026).

Tests used:
Assay type in all cases: biochemical
[1] = molecular target: T1, KRAS G12C (amino acids 1-169) (Homo sapiens, UniProt P01116, G12C); assay: SOS-catalyzed nucleotide exchange assay (Procedure B, BODIPY FL GDP displacement), KRAS G12C; conditions: read-out: KRAS G12C GNE IC50
T1 construct: made in house; host or cells: E. coli
Experimental: (§1) Procedure for SOS-Catalyzed Nucleotide Exchange Assay for KRAS-G12C/D/V/WT (Procedure B)
(§2) Recombinant KRAS G12C (amino acids 1-169, SEQ ID NO:9), KRAS G12D (amino acids 1-169, SEQ ID NO: 10), KRAS G12V (amino acids 1-169, SEQ ID NO: 11), KRAS WT (amino acids 1-169, SEQ ID NO:12) and SOS1 (amino acids 564-1049, SEQ ID NO: 13) proteins were expressed in E. coli and purified by affinity chromatography. To prepare each BODIPY™ FL GDP-bound KRAS protein, 50 μM KRAS proteins were incubated with 0.5 mM BODIPY™ FL GDP (Invitrogen, G22360) in a loading buffer (20 mM Tris-HCl pH 7.5, 50 mM NaCl, 1 mM DTT and 2.5 mM EDTA) for 1 hour on ice. After the incubation, MgCl2 was added to a final concentration of 10 mM, followed by an incubation at room temperature for 30 minutes. The mixtures were allowed to pass through a NAP-5 column to remove free nucleotides and purified BODIPY™ FL GDP-bound KRAS G12C, G12D, G12V and WT proteins were used for compound evaluation.
(§3) The inhibitory activity of compounds on recombinant KRAS is measured by the displacement of the bound BODIPY™ GDP. Specifically, 2.5 nM of each BODIPY™ FL GDP-bound KRAS complex was incubated with various concentrations of compound in a reaction buffer (20 mM Tris-HCl pH 7.5, 100 mM NaCl, 1 mM MgCl2, 2 mM DTT, 0.1% Tween 20) at 25° C. for 1 hour. After the incubation, recombinant SOS1 and GMPPNP (Jena Bioscience GmbH, NU-401) were added and incubated at room temperature for 30 minutes to proceed SOS1-dependent GDP-GTP exchange reaction on KRAS. Displacement of BODIPY™ FL GDP by Guanosine-5′-[(β,γ)-imido]triphosphate, Tetralithium salt (GMPPNP) was measured by calculating the ratio of fluorescence intensities of BODIPY™ FL before and after the exchange reaction. Percent Inhibition was calculated by setting the fluorescence ratio from the reaction without test compound (DMSO control) and the fluorescence ratio from the reaction without SOS1 and GMPPNP as 0% and 100% inhibition, respectively. Dose response curves were analyzed using a 4-parameter logistic model to calculate IC50 values.

[2] = molecular target: T2, KRAS G12D (amino acids 1-169) (Homo sapiens, UniProt P01116, G12D); assay: SOS-catalyzed nucleotide exchange assay (Procedure B, BODIPY FL GDP displacement), KRAS G12D; conditions: read-out: KRAS G12D GNE IC50
T2 construct: made in house; host or cells: E. coli
Experimental: as §1, §2, §3

[3] = molecular target: T3, KRAS G12V (amino acids 1-169) (Homo sapiens, UniProt P01116, G12V); assay: SOS-catalyzed nucleotide exchange assay (Procedure B, BODIPY FL GDP displacement), KRAS G12V; conditions: read-out: KRAS G12V GNE IC50
T3 construct: made in house; host or cells: E. coli
Experimental: as §1, §2, §3

[4] = molecular target: T4, KRAS WT (amino acids 1-169) (Homo sapiens, UniProt P01116); assay: SOS-catalyzed nucleotide exchange assay (Procedure B, BODIPY FL GDP displacement), KRAS WT; conditions: read-out: KRAS WT GNE IC50
T4 construct: made in house; host or cells: E. coli
Experimental: as §1, §2, §3

T1 sequence (P01116 with tags, fused parts or gaps isoform P01116-2 G12C): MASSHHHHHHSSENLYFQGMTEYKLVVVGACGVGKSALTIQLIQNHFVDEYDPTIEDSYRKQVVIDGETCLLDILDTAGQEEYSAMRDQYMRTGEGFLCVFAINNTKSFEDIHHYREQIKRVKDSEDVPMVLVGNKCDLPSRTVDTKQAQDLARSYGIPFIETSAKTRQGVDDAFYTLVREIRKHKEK
T2 sequence (P01116 with tags, fused parts or gaps isoform P01116-2 G12D): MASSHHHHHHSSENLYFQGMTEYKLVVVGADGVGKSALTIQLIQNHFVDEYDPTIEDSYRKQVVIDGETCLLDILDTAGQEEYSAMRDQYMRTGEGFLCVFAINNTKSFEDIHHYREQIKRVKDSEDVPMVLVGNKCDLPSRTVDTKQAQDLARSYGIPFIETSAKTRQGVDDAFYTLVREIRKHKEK
T3 sequence (P01116 with tags, fused parts or gaps isoform P01116-2 G12V): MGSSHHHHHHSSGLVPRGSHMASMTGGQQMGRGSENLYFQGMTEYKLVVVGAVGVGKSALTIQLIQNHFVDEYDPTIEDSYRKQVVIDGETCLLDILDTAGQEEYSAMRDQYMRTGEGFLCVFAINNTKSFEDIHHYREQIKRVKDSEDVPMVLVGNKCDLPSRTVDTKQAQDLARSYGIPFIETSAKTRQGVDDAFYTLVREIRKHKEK
T4 sequence (P01116 with tags, fused parts or gaps isoform P01116-2): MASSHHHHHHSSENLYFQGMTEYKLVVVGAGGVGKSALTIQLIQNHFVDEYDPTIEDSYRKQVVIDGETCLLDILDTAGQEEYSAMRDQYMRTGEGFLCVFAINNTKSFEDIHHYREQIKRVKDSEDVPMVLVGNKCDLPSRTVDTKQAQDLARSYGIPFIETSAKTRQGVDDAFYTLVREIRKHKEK

| Structure (SMILES) | IC50 [1] [nM] | IC50 [2] [nM] | IC50 [3] [nM] | IC50 [4] [nM] |
| --- | --- | --- | --- | --- |
| CC(=O)c1c(C(F)(F)F)cc2[nH]ncc2c1-c1nccc2c1sc1nc(OC[C@@]34CCCN3C[C@H](F)C4)nc(N3CCOC[C@@](C)(O)C3)c12 [Ex-59] | 183 | 71.9 | 125 | 112 |
| CC1c2c(cc3[nH]ncc3c2-c2nccc3c2sc2nc(OC[C@@]45CCCN4C[C@H](F)C5)nc(N4CCOC[C@@](C)(O)C4)c23)CC1(F)F (single isomer, unassigned) [Ex-107] | 19.8 | 3.81 | 9.52 | 6.2 |
| CCC1CC(F)(F)c2cc3[nH]ncc3c(-c3nccc4c3sc3nc(OC[C@@]56CCCN5C[C@H](F)C6)nc(N5CCOC[C@@](C)(O)C5)c34)c21 (stereo partly drawn) [Ex-102, (6S)-4-(8-(5-ethyl-7,7-difluoro-1,5,6,7-tetrahydrocyclopenta[f]in-dazol-4-yl)-2-(((2R,7aS)-2-fluorotetrahydro-1H-pyrrolizin-7a(5H)-yl)methoxy)pyrido[4′,3′:4,5]thi-eno[2,3-d]pyrimidin-4-yl)-6-methyl-1,4-oxazepan-6-ol] | 10.3 | 3.56 | 10.4 | 7.84 |
| CC1c2c(cc3[nH]ncc3c2-c2nccc3c2sc2nc(OC[C@@]45CCCN4C[C@H](F)C5)nc(N4CCOC[C@@](C)(O)C4)c23)C(C)(C)C1(F)F (stereo partly drawn) [Ex-100, (6S)-4-(8-(6,6-difluoro-5,7,7-trimethyl-1,5,6,7-tetrahydrocyclopenta[f]in-dazol-4-yl)-2-(((2R,7aS)-2-fluorotetrahydro-1H-pyrrolizin-7a(5H)-yl)methoxy)pyrido[4′,3′: 4,5]thieno[2,3-d]pyrimidin-4-yl)-6-methyl-1,4-oxazepan-6-ol] | 663 | 216 | 507 | 354 |
| CCC1CCc2cc3[nH]ncc3c(-c3nccc4c3sc3nc(OC[C@@]56CCCN5C/C(=C\F)C6)nc(N5CCOC[C@@](C)(O)C5)c34)c21 (stereo partly drawn) [Ex-94, (6S)-4-(8-(5-ethyl-1,5,6,7-tetrahydrocyclopenta[f]in-dazol-4-y1)-2-(((S,Z)-2-(fluoromethylene)tetrahy-dro-1H-pyrrolizin-7a(5H)-yl)methoxy)pyrido[4′,3':4,5]thi-eno[2,3-d]pyrimidin-4-y1)-6-methyl-1,4-oxazepan-6-ol] | 5.33 | 1.68 | 4.2 | 3.82 |
| C[C@@]1(O)COCCN(c2nc(OC[C@@]34CCCN3C[C@H](F)C4)nc3sc4c(-c5c(C6=CCOC6)c(Cl)cc6[nH]ncc56)nccc4c23)C1 [Ex-74, (6S)-4-(8-(6-chloro-5-(2,5-dihydrofuran-3-yl)-1H-indazol-4-yl)-2-(((2R,7aS)-2-fluorotetrahydro-1H-pyrrolizin-7a(5H)-yl)methoxy)pyrido[4′,3′:4,5]thi-eno[2,3-d]pyrimidin-4-yl)-6-methyl-1,4-oxazepan-6-ol] | 819 | 438 | 1260 | 933 |
| CCCC1CCc2cc3[nH]ncc3c(-c3nccc4c3sc3nc(OC[C@@]56CCCN5C[C@H](F)C6)nc(N5CCOC[C@@](C)(O)C5)c34)c21 (stereo partly shown) [Ex-95] | 91.5 | 49.8 | 65 | 99.4 |

The remaining lines, values ahead:

| IC50 [1] [nM] | IC50 [2] [nM] | IC50 [3] [nM] | IC50 [4] [nM] | Structure (SMILES) |
| --- | --- | --- | --- | --- |
| 18 | 6.65 | 15.8 | 12.4 | C#CC1CCc2cc3[nH]ncc3c(-c3nccc4c3sc3nc(OC[C@@]56CCCN5C[C@H](F)C6)nc(N5CCOC[C@@](C)(O)C5)c34)c21 (stereo partly drawn) [Ex-166, (6S)-4-(8-(5-ethyn-yl-1,5,6,7-tetrahydro-cyclopenta[f]indazol-4-yl)-2-(((2R,7aS)-2-fluorotetrahydro-1H-pyrrolizin-7a(5H)-yl)methoxy)-pyrido[4′,3′:4,5]thieno[2,3-d]pyr-imidin-4-yl)-6-meth-yl-1,4-oxazepan-6-ol] |
| 340 | 438 | 490 | 432 | CC(=O)N1CC(Nc2nc(OC[C@@]34CCCN3C[C@H](F)C4)nc3sc4c(-c5c(C(F)(F)F)c(C)cc6[nH]ncc56)nccc4c23)C1 [Ex-190, 1-(3-((2-(((2R,7aS)-2-fluorotetrahydro-1H-pyr-rolizin-7a(5H)-yl)meth-oxy)-8-(6-methyl-5-(tri-fluoromethyl)-1H-indazol-4-yl)pyrido[4′,3′:4,5]thieno[2,3-d]pyrimidin-4-yl)amino)azetidin-1-yl)-ethan-1-one] |
| 1920 | 1470 | 2370 | 1350 | Cc1cc2[nH]nc(I)c2c(-c2nccc3c2sc2nc(OC[C@@]45CCCN4C[C@H](F)C5)nc(N4CCOC[C@@](C)(O)C4)c23)c1C(F)(F)F [Ex-149, (6S)-4-(2-(((2R,7aS)-2-fluorotetrahydro-1H-pyrrolizin-7a(5H)-yl)methoxy)-8-(3-iodo-6-methyl-5-(trifluoromethyl)-1H-indazol-4-yl)pyrido[4′,3′:4,5]thieno[2,3-d]pyrimidin-4-yl)-6-methyl-1,4-oxazepan-6-ol] |
| 1260 | 3630 | 3200 | 2190 | Cc1cc2[nH]ncc2c(-c2nccc3c2sc2nc(OC[C@@]45CCCN4C[C@H](F)C5)nc(N4CCOCC(C)C4)c23)c1C(F)(F)F (stereo partly drawn) [Ex-182, 4-(2-(((2R,7aS)-2-fluoro-tetrahydro-1H-pyrrolizin-7a(5H)-yl)methoxy)-8-(6-methyl-5-(trifluorometh-yl)-1H-indazol-4-yl)pyrido [4′,3′:4,5]thieno[2,3-d]pyr-imidin-4-yl)-6-methyl-1,4-oxazepane] |
| 24.9 | 13.1 | 33.9 | 34 | C#Cc1c(Cl)cc2[nH]ncc2c1-c1nccn2c1c(F)c1nc(OC[C@@]34CCCN3C[C@H](F)C4)nc(N3CCOC[C@@](C)(O)C3)c12 [Ex-304, (S)-4-(9-(6-chloro-5-ethynyl-1H-indazol-4-yl)-10-fluoro-2-(((2R,7aS)-2-fluorotetrahydro-1H-pyrrolizin-7a(5H)-yl)methoxy)pyrazino[1′,2′:1,5]pyrrolo[3,2-d]pyrimidin-4-yl)-6-methyl-1,4-oxazepan-6-ol] |
| 645 | 322 | 1000 | 889 | C#Cc1cccc2cccc(-c3nncc4c3sc3nc(OC[C@@]56CCCN5C[C@H](F)C6)nc(N5CCOC[C@@](C)(O)C5)c34)c12 [Ex-285] |
| 518 | 274 | 402 | 473 | CC1(C)Cc2cc3[nH]ncc3c(-c3nccc4c3sc3nc(OC[C@@]56CCCN5C[C@H](F)C6)nc(N5CCOC[C@@](C)(O)C5)c34)c2C1 [Ex-112, (6S)-4-(8-(6,6-dimethyl-1,5,6,7-tetrahydrocyclopenta[f]in-dazol-4-yl)-2-(((2R,7aS)-2-fluorotetrahydro-1H-pyrrolizin-7a(5H)-yl)methoxy)pyrido[4′,3′:4,5]thi-eno[2,3-d]pyrimidin-4-yl)-6-methyl-1,4-oxazepan-6-ol] |
| 85.2 | 49.8 | 159 | 113 | Cc1cc2[nH]ncc2c(-c2nccn3c2c(C)c2nc(OC[C@@]45CCCN4C[C@H](F)C5)nc(N4CCOC[C@@](C)(O)C4)c23)c1C1CC1 [Ex-298, (S)-4-(9-(5-cyclopropyl-6-methyl-1H-indazol-4-yl)-2-(((2R,7aS)-2-fluorotetrahydro-1H-pyrrolizin-7a(5H)-yl)methoxy)-10-methylpyrazi-no[1′,2′:1,5]pyrrolo[3,2-d]pyrimidin-4-yl)-6-methyl-1,4-oxazepan-6-ol] |
| 590 | 493 | 936 | 767 | CO[C@]1(C)COCCN(c2nc(OC[C@@]34CCCN3C[C@H](F)C4)nc3sc4c(-c5c(C(F)(F)F)c(C)cc6[nH]ncc56)nccc4c23)C1 [Ex-203, (6S)-4-(2-(((2R,7aS)-2-fluorotetrahydro-1H-pyrrolizin-7a(5H)-yl)methoxy)-8-(6-methyl-5-(trifluoromethyl)-1H-indazol-4-yl)pyrido[4′,3′:4,5]thieno[2,3-d]pyrimidin-4-yl)-6-methoxy-6-methyl-1,4-oxazepane] |
